Assay results published in the kinase profiling compilation of Christmann-Franck et al. (2016).

Experiments:
Test in all cases: radiometric filter-binding kinase assay
[1] = molecular target: RPS6KA3 KD1 KD2 (human) (UniProt P51812)
[2] = system: PAK2 (human), Q13177 [T402E]
[3] = molecular target: BRSK1 (human) (UniProt Q8TDC3)
[4] = molecular target: INSR (human) (UniProt P06213)
[5] = molecular target: CDK2 CCNA2 (human) (UniProt P20248+P24941)
[6] = molecular target: RIPK2 (human) (UniProt O43353)
[7] = system: SGK1 (human), O00141 [S422D]
[8] = molecular target: TBK1 (human) (UniProt Q9UHD2)
Chain of TBK1 (human) (Q9UHD2 whole entry, looked up): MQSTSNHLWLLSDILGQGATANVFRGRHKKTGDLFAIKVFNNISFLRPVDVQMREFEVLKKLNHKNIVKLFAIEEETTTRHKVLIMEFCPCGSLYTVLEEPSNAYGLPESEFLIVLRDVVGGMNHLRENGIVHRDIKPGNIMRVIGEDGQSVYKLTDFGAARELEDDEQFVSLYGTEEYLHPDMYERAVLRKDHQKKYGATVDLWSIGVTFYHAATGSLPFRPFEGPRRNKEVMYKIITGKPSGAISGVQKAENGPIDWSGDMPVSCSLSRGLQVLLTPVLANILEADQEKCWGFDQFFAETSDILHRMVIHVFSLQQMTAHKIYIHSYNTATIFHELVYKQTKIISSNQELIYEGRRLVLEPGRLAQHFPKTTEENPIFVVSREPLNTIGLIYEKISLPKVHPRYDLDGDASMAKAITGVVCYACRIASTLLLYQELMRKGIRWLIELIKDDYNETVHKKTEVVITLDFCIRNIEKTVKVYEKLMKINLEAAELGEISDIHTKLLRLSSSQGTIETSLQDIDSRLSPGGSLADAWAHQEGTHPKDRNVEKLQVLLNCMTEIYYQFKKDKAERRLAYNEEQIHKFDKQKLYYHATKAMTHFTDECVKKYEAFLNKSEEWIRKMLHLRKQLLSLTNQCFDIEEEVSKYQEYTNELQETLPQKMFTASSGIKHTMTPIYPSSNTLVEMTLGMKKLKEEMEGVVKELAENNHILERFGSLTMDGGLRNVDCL

[9] = molecular target: BRSK2 (human) (UniProt Q8IWQ3)
[10] = system: RPS6KB1 (human), P23443 [T412E]
[11] = molecular target: EPHB2 (human) (UniProt P29323)
[12] = molecular target: MELK (human) (UniProt Q14680)
Chain of MELK (human) (Q14680 whole entry, looked up): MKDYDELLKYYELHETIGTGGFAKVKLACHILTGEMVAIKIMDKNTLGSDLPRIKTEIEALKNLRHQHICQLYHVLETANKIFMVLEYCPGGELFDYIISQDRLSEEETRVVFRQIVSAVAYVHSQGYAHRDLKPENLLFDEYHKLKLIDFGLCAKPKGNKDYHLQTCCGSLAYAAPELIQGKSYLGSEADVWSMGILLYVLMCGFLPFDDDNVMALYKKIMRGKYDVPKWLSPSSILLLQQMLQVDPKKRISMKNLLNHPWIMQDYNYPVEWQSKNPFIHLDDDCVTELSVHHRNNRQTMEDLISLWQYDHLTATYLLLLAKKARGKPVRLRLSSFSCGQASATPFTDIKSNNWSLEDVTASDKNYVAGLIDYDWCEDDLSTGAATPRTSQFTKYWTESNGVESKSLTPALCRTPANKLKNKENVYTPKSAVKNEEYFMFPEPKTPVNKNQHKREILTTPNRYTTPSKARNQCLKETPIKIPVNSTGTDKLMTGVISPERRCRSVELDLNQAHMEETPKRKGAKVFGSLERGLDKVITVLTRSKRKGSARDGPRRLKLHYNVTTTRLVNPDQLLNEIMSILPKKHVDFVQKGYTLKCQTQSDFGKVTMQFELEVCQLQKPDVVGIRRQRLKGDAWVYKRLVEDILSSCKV

[13] = molecular target: MAP3K11 (human) (UniProt Q16584)
[14] = molecular target: SYK (human) (UniProt P43405)
[15] = molecular target: MAP2K2 (human) (UniProt P36507)
[16] = molecular target: MAPKAPK3 (human) (UniProt Q16644)
[17] = molecular target: FLT1 (human) (UniProt P17948)
Chain of FLT1 (human) (P17948 whole entry, looked up): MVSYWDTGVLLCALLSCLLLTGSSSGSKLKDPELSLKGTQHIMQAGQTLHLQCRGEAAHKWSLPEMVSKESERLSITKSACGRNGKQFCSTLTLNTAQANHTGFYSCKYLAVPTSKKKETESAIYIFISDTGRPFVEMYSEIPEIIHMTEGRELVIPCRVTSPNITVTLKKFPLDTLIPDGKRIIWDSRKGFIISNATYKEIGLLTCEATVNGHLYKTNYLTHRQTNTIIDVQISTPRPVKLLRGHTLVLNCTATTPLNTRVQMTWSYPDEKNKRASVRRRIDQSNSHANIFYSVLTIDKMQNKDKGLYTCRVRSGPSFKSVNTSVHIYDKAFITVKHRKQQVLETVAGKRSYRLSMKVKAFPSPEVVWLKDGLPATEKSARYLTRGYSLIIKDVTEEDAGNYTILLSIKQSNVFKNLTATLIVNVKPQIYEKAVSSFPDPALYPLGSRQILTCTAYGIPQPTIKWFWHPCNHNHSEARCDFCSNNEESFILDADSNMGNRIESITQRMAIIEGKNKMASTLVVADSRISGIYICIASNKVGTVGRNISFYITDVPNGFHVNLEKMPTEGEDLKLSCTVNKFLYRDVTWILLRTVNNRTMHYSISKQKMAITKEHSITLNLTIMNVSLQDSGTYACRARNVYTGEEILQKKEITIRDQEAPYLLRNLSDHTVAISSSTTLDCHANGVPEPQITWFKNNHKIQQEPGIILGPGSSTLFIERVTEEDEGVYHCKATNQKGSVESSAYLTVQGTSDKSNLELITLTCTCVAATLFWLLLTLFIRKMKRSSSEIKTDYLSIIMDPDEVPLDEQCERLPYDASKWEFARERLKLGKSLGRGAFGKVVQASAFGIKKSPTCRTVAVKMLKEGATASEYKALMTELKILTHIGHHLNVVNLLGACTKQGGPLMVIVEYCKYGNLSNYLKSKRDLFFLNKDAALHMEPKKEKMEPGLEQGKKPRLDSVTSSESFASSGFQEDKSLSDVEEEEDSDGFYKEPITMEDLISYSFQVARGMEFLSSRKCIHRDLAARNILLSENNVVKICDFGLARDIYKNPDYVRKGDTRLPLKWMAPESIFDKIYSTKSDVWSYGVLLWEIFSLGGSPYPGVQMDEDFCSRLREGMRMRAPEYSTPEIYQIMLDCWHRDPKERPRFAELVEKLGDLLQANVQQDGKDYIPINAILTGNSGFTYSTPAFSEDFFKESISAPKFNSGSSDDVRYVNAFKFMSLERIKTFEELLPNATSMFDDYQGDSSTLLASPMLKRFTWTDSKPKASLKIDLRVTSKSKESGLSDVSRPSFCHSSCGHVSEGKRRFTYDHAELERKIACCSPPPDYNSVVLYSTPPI

[18] = molecular target: EPHA4 (human) (UniProt P54764)
[19] = molecular target: JAK2 JH1 JH2 (human) (UniProt O60674)
[20] = molecular target: FGFR1 (human) (UniProt P11362)
[21] = molecular target: AURKA (human) (UniProt O14965)
Chain of AURKA (human) (O14965 whole entry, looked up): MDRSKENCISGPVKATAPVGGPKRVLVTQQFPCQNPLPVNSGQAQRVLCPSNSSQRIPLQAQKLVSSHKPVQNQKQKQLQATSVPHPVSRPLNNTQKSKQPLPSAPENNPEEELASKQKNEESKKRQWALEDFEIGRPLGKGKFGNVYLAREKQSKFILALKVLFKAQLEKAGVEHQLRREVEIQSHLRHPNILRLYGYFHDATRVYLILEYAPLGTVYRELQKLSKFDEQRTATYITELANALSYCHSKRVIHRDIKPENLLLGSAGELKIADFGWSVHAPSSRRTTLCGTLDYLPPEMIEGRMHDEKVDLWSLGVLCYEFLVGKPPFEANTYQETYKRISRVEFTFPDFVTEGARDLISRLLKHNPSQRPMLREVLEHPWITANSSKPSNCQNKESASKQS

[22] = molecular target: MYLK (human) (UniProt Q15746)
[23] = molecular target: CLK2 (human) (UniProt P49760)
[24] = molecular target: MAP3K7 TAB1 (human) (UniProt Q15750+O43318)
[25] = molecular target: PLK1 (human) (UniProt P53350)
[26] = molecular target: CSNK1D (human) (UniProt P48730)
[27] = molecular target: MAPK8 (human) (UniProt P45983)
[28] = molecular target: PIM1 (human) (UniProt P11309)
Chain of PIM1 (human) (P11309 whole entry, looked up): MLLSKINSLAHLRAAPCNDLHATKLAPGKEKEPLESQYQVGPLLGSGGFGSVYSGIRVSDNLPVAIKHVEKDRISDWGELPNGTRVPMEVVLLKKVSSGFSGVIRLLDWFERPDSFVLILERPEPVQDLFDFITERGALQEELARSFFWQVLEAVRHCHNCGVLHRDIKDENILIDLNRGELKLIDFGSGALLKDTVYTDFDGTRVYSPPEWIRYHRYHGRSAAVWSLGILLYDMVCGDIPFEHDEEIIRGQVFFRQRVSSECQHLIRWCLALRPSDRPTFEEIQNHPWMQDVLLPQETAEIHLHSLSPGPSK

[29] = molecular target: IRAK4 (human) (UniProt Q9NWZ3)
[30] = molecular target: INSRR (human) (UniProt P14616)
[31] = molecular target: PIM3 (human) (UniProt Q86V86)
[32] = molecular target: MARK4 (human) (UniProt Q96L34)
Chain of MARK4 (human) (Q96L34 whole entry, looked up): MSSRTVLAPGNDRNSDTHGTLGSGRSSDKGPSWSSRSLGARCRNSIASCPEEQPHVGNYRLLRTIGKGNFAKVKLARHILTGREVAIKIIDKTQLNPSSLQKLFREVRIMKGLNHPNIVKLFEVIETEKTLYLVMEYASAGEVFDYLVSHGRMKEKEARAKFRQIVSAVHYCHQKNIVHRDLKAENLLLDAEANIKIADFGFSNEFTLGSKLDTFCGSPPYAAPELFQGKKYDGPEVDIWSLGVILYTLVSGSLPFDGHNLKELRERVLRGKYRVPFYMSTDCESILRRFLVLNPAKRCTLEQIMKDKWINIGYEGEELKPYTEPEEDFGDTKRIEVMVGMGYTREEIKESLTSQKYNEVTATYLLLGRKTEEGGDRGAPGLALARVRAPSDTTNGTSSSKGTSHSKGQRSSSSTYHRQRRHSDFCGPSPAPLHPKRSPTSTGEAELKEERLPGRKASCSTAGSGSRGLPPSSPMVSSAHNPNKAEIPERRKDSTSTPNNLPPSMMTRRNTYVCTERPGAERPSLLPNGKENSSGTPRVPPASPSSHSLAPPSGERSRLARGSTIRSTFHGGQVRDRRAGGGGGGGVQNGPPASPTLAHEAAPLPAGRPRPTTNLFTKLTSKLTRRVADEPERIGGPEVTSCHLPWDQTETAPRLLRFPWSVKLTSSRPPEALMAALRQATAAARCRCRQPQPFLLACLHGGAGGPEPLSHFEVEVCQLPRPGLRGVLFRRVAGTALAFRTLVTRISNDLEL

[33] = molecular target: MAPK12 (human) (UniProt P53778)
[34] = molecular target: TTK (human) (UniProt P33981)
[35] = molecular target: CSK (human) (UniProt P41240)

Chain of PAK2 (human), Q13177 [T402E] (Q13177 whole entry T402E, looked up): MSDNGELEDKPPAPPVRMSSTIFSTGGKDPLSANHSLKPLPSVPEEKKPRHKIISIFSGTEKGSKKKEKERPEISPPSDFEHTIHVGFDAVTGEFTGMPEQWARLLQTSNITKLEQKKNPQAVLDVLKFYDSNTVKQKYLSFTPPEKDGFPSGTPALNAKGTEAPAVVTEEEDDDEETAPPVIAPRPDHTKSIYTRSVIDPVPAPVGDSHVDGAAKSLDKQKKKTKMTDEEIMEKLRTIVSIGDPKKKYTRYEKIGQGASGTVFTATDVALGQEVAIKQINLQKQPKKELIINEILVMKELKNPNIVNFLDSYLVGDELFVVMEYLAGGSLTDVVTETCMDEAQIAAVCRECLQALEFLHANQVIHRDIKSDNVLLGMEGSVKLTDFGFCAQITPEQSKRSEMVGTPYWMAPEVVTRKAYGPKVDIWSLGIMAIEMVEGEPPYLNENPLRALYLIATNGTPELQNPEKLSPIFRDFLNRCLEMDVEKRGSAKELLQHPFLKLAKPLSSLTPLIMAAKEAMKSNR

## O=c1c(O)c(-c2ccc(O)c(O)c2)oc2cc(O)c(O)c(O)c12
[1]; compound 1.0 µM
  residual activity: 22%
[1]; compound 10.0 µM
  residual activity: 12%
[2]; compound 1.0 µM
  residual activity: 96%
[2]; compound 10.0 µM
  residual activity: 98%
[3]; compound 1.0 µM
  residual activity: 82%
[3]; compound 10.0 µM
  residual activity: 7%
[4]; compound 1.0 µM
  residual activity: 86%
[4]; compound 10.0 µM
  residual activity: 62%
[5]; compound 1.0 µM
  residual activity: 89%
[5]; compound 10.0 µM
  residual activity: 32%
[6]; compound 1.0 µM
  residual activity: 83%
[6]; compound 10.0 µM
  residual activity: 7%
[7]; compound 1.0 µM
  residual activity: 87%
[7]; compound 10.0 µM
  residual activity: 24%
[8]; compound 1.0 µM
  residual activity: 54%
[8]; compound 10.0 µM
  residual activity: 64%
[9]; compound 1.0 µM
  residual activity: 71%
[9]; compound 10.0 µM
  residual activity: 13%
[10]; compound 1.0 µM
  residual activity: 104%
[10]; compound 10.0 µM
  residual activity: 14%
[11]; compound 1.0 µM
  residual activity: 69%
[12]; compound 1.0 µM
  residual activity: 53%
[12]; compound 10.0 µM
  residual activity: 9%
[13]; compound 1.0 µM
  residual activity: 62%
[13]; compound 10.0 µM
  residual activity: 16%
[14]; compound 1.0 µM
  residual activity: 89%
[14]; compound 10.0 µM
  residual activity: 93%
[15]; compound 1.0 µM
  residual activity: 94%
[16]; compound 1.0 µM
  residual activity: 92%
[16]; compound 10.0 µM
  residual activity: 14%
[17]; compound 1.0 µM
  residual activity: 27%
[17]; compound 10.0 µM
  residual activity: 7%
[18]; compound 1.0 µM
  residual activity: 117%
[18]; compound 10.0 µM
  residual activity: 74%
[19]; compound 1.0 µM
  residual activity: 91%
[19]; compound 10.0 µM
  residual activity: 13%
[20]; compound 1.0 µM
  residual activity: 27%
[20]; compound 10.0 µM
  residual activity: 14%
[21]; compound 1.0 µM
  residual activity: 95%
[21]; compound 10.0 µM
  residual activity: 28%
[22]; compound 1.0 µM
  residual activity: 87%
[22]; compound 10.0 µM
  residual activity: 23%
[23]; compound 1.0 µM
  residual activity: 58%
[24]; compound 1.0 µM
  residual activity: 94%
[24]; compound 10.0 µM
  residual activity: 5%
[25]; compound 1.0 µM
  residual activity: 107%
[25]; compound 10.0 µM
  residual activity: 23%
[26]; compound 1.0 µM
  residual activity: 90%
[26]; compound 10.0 µM
  residual activity: 29%
[27]; compound 1.0 µM
  residual activity: 93%
[27]; compound 10.0 µM
  residual activity: 93%
[28]; compound 1.0 µM
  residual activity: 37%
[28]; compound 10.0 µM
  residual activity: 7%
[29]; compound 1.0 µM
  residual activity: 80%
[29]; compound 10.0 µM
  residual activity: 46%
[30]; compound 1.0 µM
  residual activity: 76%
[30]; compound 10.0 µM
  residual activity: 21%
[31]; compound 1.0 µM
  residual activity: 34%
[31]; compound 10.0 µM
  residual activity: 0%
[32]; compound 1.0 µM
  residual activity: 34%
[32]; compound 10.0 µM
  residual activity: 20%
[33]; compound 1.0 µM
  residual activity: 107%
[33]; compound 10.0 µM
  residual activity: 88%
[34]; compound 1.0 µM
  residual activity: 75%
[34]; compound 10.0 µM
  residual activity: 36%
[35]; compound 1.0 µM
  residual activity: 125%
[35]; compound 10.0 µM
  residual activity: 74%

## N#Cc1c(C2CCNCC2)cc(-c2c(O)cccc2OCC2CC2)nc1N
[1]; compound 1.0 µM
  residual activity: 39%
[1]; compound 10.0 µM
  residual activity: 11%
[2]; compound 1.0 µM
  residual activity: 83%
[2]; compound 10.0 µM
  residual activity: 78%
[3]; compound 1.0 µM
  residual activity: 107%
[3]; compound 10.0 µM
  residual activity: 58%
[4]; compound 1.0 µM
  residual activity: 51%
[4]; compound 10.0 µM
  residual activity: 33%
[5]; compound 1.0 µM
  residual activity: 32%
[5]; compound 10.0 µM
  residual activity: 6%
[6]; compound 1.0 µM
  residual activity: 80%
[6]; compound 10.0 µM
  residual activity: 57%
[7]; compound 1.0 µM
  residual activity: 96%
[7]; compound 10.0 µM
  residual activity: 69%
[8]; compound 1.0 µM
  residual activity: 80%
[8]; compound 10.0 µM
  residual activity: 86%
[9]; compound 1.0 µM
  residual activity: 92%
[9]; compound 10.0 µM
  residual activity: 46%
[10]; compound 1.0 µM
  residual activity: 88%
[10]; compound 10.0 µM
  residual activity: 53%
[11]; compound 1.0 µM
  residual activity: 119%
[11]; compound 10.0 µM
  residual activity: 113%
[12]; compound 1.0 µM
  residual activity: 88%
[12]; compound 10.0 µM
  residual activity: 29%
[13]; compound 1.0 µM
  residual activity: 87%
[13]; compound 10.0 µM
  residual activity: 44%
[14]; compound 1.0 µM
  residual activity: 88%
[14]; compound 10.0 µM
  residual activity: 81%
[15]; compound 1.0 µM
  residual activity: 107%
[15]; compound 10.0 µM
  residual activity: 77%
[16]; compound 1.0 µM
  residual activity: 87%
[16]; compound 10.0 µM
  residual activity: 85%
[17]; compound 1.0 µM
  residual activity: 101%
[17]; compound 10.0 µM
  residual activity: 53%
[18]; compound 1.0 µM
  residual activity: 107%
[18]; compound 10.0 µM
  residual activity: 84%
[19]; compound 1.0 µM
  residual activity: 27%
[19]; compound 10.0 µM
  residual activity: 4%
[20]; compound 1.0 µM
  residual activity: 97%
[20]; compound 10.0 µM
  residual activity: 72%
[21]; compound 1.0 µM
  residual activity: 111%
[21]; compound 10.0 µM
  residual activity: 91%
[22]; compound 1.0 µM
  residual activity: 70%
[22]; compound 10.0 µM
  residual activity: 25%
[23]; compound 1.0 µM
  residual activity: 43%
[23]; compound 10.0 µM
  residual activity: 7%
[24]; compound 1.0 µM
  residual activity: 73%
[24]; compound 10.0 µM
  residual activity: 39%
[25]; compound 1.0 µM
  residual activity: 83%
[25]; compound 10.0 µM
  residual activity: 87%
[26]; compound 1.0 µM
  residual activity: 86%
[26]; compound 10.0 µM
  residual activity: 78%
[27]; compound 1.0 µM
  residual activity: 110%
[27]; compound 10.0 µM
  residual activity: 80%
[28]; compound 1.0 µM
  residual activity: 63%
[28]; compound 10.0 µM
  residual activity: 18%
[29]; compound 1.0 µM
  residual activity: 124%
[29]; compound 10.0 µM
  residual activity: 70%
[30]; compound 1.0 µM
  residual activity: 117%
[30]; compound 10.0 µM
  residual activity: 61%
[31]; compound 1.0 µM
  residual activity: 56%
[31]; compound 10.0 µM
  residual activity: 27%
[32]; compound 1.0 µM
  residual activity: 115%
[32]; compound 10.0 µM
  residual activity: 102%
[33]; compound 1.0 µM
  residual activity: 94%
[33]; compound 10.0 µM
  residual activity: 72%
[34]; compound 1.0 µM
  residual activity: 89%
[34]; compound 10.0 µM
  residual activity: 66%
[35]; compound 1.0 µM
  residual activity: 83%
[35]; compound 10.0 µM
  residual activity: 74%
